Results reported in US12691070B2, “Cationic lipids and preparation method thereof” (RiboX Therapeutics HK Limited, priority 2023, dated 2026).

Columns and labels:
[1] = LNP size and polydispersity index (PDI) by dynamic light scattering; assay type: physicochemical; settings: for Size: in nm (unit assumed)
Summary of the method: (§1)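 Dynamic light scattering and zeta potential measurements were run on PBS-dialyzed LNPs, which had been formed by microfluidic mixing at 12 ml/min with final lipid at 1.5 mM to 6 mM. RNA content and percent encapsulation were determined by Ribogreen with and without Triton X-100.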

[2] = LNP zeta potential (Zetasizer); assay type: physicochemical
Summary of the method: as §1

[3] = RNA encapsulation efficacy by Quant-IT Ribogreen kit; assay type: physicochemical; settings: for Encapsulation Efficiency %: LNP with cirRNA (SEQ ID NO: 1); for Encapsulation Efficiency: LNP with mRNA (SEQ ID NO: 2)
Summary of the method: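 Ribogreen fluorescence with and without Triton X-100 gave encapsulation as 100% − (intact/lysed) signal; DLS size, PDI and zeta potential measured on a Zetasizer. Particles: 50:10:38.5:1.5 lipid mix, luciferase circRNA or mRNA, lipid:nucleotide 15 or 6, microfluidic assembly at pH 4.5, PBS-dialyzed.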

Hep G2 cells [4] = assay: In vitro expression of firefly-luciferase, Hep G2; assay type: cell-based
Summary of the method: (§2)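 Luminescence from cell lysates reports expression: luciferase activity was measured 72 h after transfection with 100 ng/mL RNA-LNPs encoding firefly luciferase.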

RAW 264.7 cells [5] = assay: In vitro expression of firefly-luciferase, RAW 264.7; assay type: cell-based
Summary of the method: as §2

Hep G2 cells [6] = assay: In vitro toxicity (CellTiter-Glo cell viability), Hep G2; assay type: cell-based;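 also: percent of untreated cells luminescence signal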
Summary of the method: (§3)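 Toxicity of RNA-LNPs (1 μg/mL) is reported as cell viability, calculated from CellTiter-Glo luminescence measured at 72 hours after transfection.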

RAW 264.7 cells [7] = assay: In vitro toxicity (CellTiter-Glo cell viability), RAW 264.7; assay type: cell-based;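 also: percent of untreated cells luminescence signal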
Summary of the method: as §3

BALB/C mice [8] = assay: In vivo expression, whole-body luminescence (IVIS)
Description: 6-8 week old, female BALB/C mice were injected with 0.05 mg*kg-1 of RNA-LNPs encoding for firefly-luciferase by intravenous injection. At 6 hours post injection, animals were intraperitoneally injected with 15 mg/ml of Luciferin substrate and whole-body luminescence was determined by a bioluminescent in vivo imaging system (IVIS).

MCP-I = MCP-I cytokine elevation in serum; assay type: in vivo; settings: cirRNA (SEQ ID NO: 1) LNPs, mice
Description: 6-8 week old, female BALB/C mice were injected with 0.5 mg*kg-1 of RNA LNPs by intravenous injection. At 2 and 24 hours post injection, animals were bled and sera concentrations of MCP-I were determined by an immunoassay (Luminex).

[9] = test system: Alanine Aminotransferase (ALT); assay: Liver enzyme elevation in serum, ALT; assay type: in vivo; settings: cirRNA (SEQ ID NO: 1) LNPs, BALB/C mice, intravenous 0.5 MPK
Description: (§4) 6-8 week old, female BALB/C mice were injected with 0.5 mg*kg-1 of RNA LNPs by intravenous injection. At 2 and 24 hours post injection, animals were bled and sera concentrations of Alanine Aminotransferase (ALT) and Aspartate Aminotransferase (AST) were determined by a blood chemistry analyzer.

[10] = test system: Aspartate Aminotransferase (AST); assay: Liver enzyme elevation in serum, AST; assay type: in vivo; settings: cirRNA (SEQ ID NO: 1) LNPs, BALB/C mice, intravenous 0.5 MPK
Description: as §4

BALB/C mice [11] = assay: Local tolerance determination by footpad injection; assay type: in vivo; settings: cirRNA (SEQ ID NO: 1) LNP, 0.175 mg*kg-1 subcutaneous into the footpad, 24 hours post minus prior
Description: 6-8 week old, female BALB/C mice were injected with 0.175 mg*kg-1 RNA LNPs by subcutaneous injection into the footpad. Prior to, and 24 hours post injections, injected footpad thickness was determined by a caliper.

[12] = cirRNA (SEQ ID NO: 1) LNPs, firefly-luciferase luminescence, Hep G2 cells
[13] = mRNA (SEQ ID NO: 2) LNP, 100 ng/mL, 72 hours post transfection, luciferase activity
[14] = cirRNA (SEQ ID NO: 1) LNPs, firefly-luciferase luminescence, RAW 264.7 cells
[15] = cirRNA (SEQ ID NO: 1) LNPs, Hep G2 cells
[16] = mRNA (SEQ ID NO: 2) LNP, 1 μg/mL, 72 hours post transfection
[17] = cirRNA (SEQ ID NO: 1) LNPs, RAW 264.7 cells
[18] = cirRNA (SEQ ID NO: 1) LNPs, BALB/C mice
[19] = mRNA (SEQ ID NO: 2) LNP, 0.05 mg*kg-1 intravenous, 6 hours post injection

Row | Compound | PDI ([1]; LNP with cirRNA (SEQ ID NO: 1)) | Size ([1]; LNP with cirRNA (SEQ ID NO: 1)) | PDI ([1]; LNP with mRNA (SEQ ID NO: 2)) | Size ([1]; LNP with mRNA (SEQ ID NO: 2)) | Zeta (mV) ([2]; LNP with cirRNA (SEQ ID NO: 1)) | Zeta (mV) ([2]; LNP with mRNA (SEQ ID NO: 2)) | Encapsulation Efficiency % [3] | Encapsulation Efficiency [3] | In vitro Expression HepG2 (Hep G2 cells [4]; [12]) | In vitro Expression HepG2 (Hep G2 cells [4]; [13]) | In vitro Expression RAW (RAW 264.7 cells [5]; [14]) | In vitro Expression RAW (RAW 264.7 cells [5]; [13]) | In vitro Viability HepG2 (Hep G2 cells [6]; [15]) | In vitro Viability HepG2 (Hep G2 cells [6]; [16]) | In vitro Viability RAW (RAW 264.7 cells [7]; [17]) | In vitro Viability RAW (RAW 264.7 cells [7]; [16]) | In vivo Expression (Whole Body) (BALB/C mice [8]; [18]) | In vivo Expression (Whole Body) (BALB/C mice [8]; [19]) | MCP-I in Sera 2 hours After 0.5 MPK Injection (MCP-I) | MCP-I in Sera 24 hours After 0.5 MPK Injection (MCP-I) | also measured
1 | CCCCC/C=C\C/C=C\CCCCCCCCN(CCCCCCCC(=O)OC(CCCCCCCC)CCCCCCCC)CCOC(=O)NCCN1CCCC1 [Lipid 128, heptadecan-9-yl 8-(((9Z,12Z)-octadeca-9,12-dien-1-yl)(2-(((2-(pyrrolidin-1-yl)ethyl)carbamoyl)oxy)ethyl)amino)octanoate] | 0.1 | 93.54 | 0.1021 | 75.38 | 0.282 mV | 6.141 mV | 94% | 91% | 4.01E+06 | 2.16E+07 | 5.15E+06 | 1.72E+06 | 103% | 94% | 59% | 92% | 5.46E+08 | 6.98E+08 | 6355.24 pg/mL | 318.11 pg/mL | ALT in Sera (IU/L) 2 hours After 0.5 MPK Injection [9]: 58.17 IU/L; ALT in Sera (IU/L) 24 hours After 0.5 MPK Injection [9]: 56.00 IU/L; AST in Sera (IU/L) 2 hours After 0.5 MPK Injection [10]: 195.53 IU/L; AST in Sera (IU/L) 24 hours After 0.5 MPK Injection [10]: 131.30 IU/L; Footpad Thickness (24 h−0 h, mm) (BALB/C mice [11]): 0.98 mm
2 | CCCCC/C=C\C/C=C\CCCCCCCCN(CCCCCCCC(=O)OC(CCCCCCCC)CCCCCCCC)CCOC(=O)NCCN(C)C [Lipid 129, heptadecan-9-yl 2-methyl-10-((9Z,12Z)-octadeca-9,12-dien-1-yl)-6-oxo-7-oxa-2,5,10-triazaoctadecan-18-oate] | 0.08 | 88.9 | 0.1768 | 55.55 | 0.417 mV | 0.5475 mV | 96% | 90% | 8.56E+06 | 7.03E+06 | 8.78E+06 | 1.11E+06 | 79% | 100% | 7% | 97% | 1.69E+09 | 1.42E+08 | 3830.40 pg/mL | 272.54 pg/mL | ALT in Sera (IU/L) 2 hours After 0.5 MPK Injection [9]: 64.50 IU/L; ALT in Sera (IU/L) 24 hours After 0.5 MPK Injection [9]: 67.87 IU/L; AST in Sera (IU/L) 2 hours After 0.5 MPK Injection [10]: 188.97 IU/L; AST in Sera (IU/L) 24 hours After 0.5 MPK Injection [10]: 112.03 IU/L; Footpad Thickness (24 h−0 h, mm) (BALB/C mice [11]): 1.09 mm
3 | CCCCC/C=C\C/C=C\CCCCCCCCN(CCCCCCCC(=O)OC(CCCCCCCC)CCCCCCCC)CCOC(=O)NCCCN(CC)CC [Lipid 131, heptadecan-9-yl 3-ethyl-12-((9Z,12Z)-octadeca-9,12-dien-1-yl)-8-oxo-9-oxa-3,7,12-triazaicosan-20-oate] | 0.22 | 74.78 | 0.1606 | 84.16 | 5.61 mV | 15.29 mV | 96% | 90.68% | 4.49E+06 | 5.66E+06 | 4.04E+06 | 9.55E+05 | 83% | 89% | 77% | 96% | 2.27E+08 | 4.52E+07 | 5003.82 pg/mL | 16.42 pg/mL | ALT in Sera (IU/L) 2 hours After 0.5 MPK Injection [9]: 51.17 IU/L; ALT in Sera (IU/L) 24 hours After 0.5 MPK Injection [9]: 44.57 IU/L; AST in Sera (IU/L) 2 hours After 0.5 MPK Injection [10]: 161.27 IU/L; AST in Sera (IU/L) 24 hours After 0.5 MPK Injection [10]: 83.17 IU/L; Footpad Thickness (24 h−0 h, mm) (BALB/C mice [11]): 1.17 mm
4 | CCCCC/C=C\C/C=C\CCCCCCCCN(CCCCCCCC(=O)OC(CCCCCCCC)CCCCCCCC)CCOC(=O)NCc1ncc[nH]1 [Lipid 132, heptadecan-9-yl 8-((2-((((1H-imidazol-2-yl)methyl)carbamoyl)oxy)ethyl)((9Z,12Z)-octadeca-9,12-dien-1-yl)amino)octanoate] | 0.072 | 91.78 | 0.2359 | 56.12 | −0.7024 mV | −8.336 mV | 97% | 89.06% | 1.44E+05 | 1.83E+05 | 4.24E+05 | 1.27E+05 | 97% | 80% | 108% | 93% | 6.13E+08 | 6.62E+08 | 28.53 pg/mL | 96.56 pg/mL | ALT in Sera (IU/L) 2 hours After 0.5 MPK Injection [9]: 65.03 IU/L; ALT in Sera (IU/L) 24 hours After 0.5 MPK Injection [9]: 44.73 IU/L; AST in Sera (IU/L) 2 hours After 0.5 MPK Injection [10]: 136.00 IU/L; AST in Sera (IU/L) 24 hours After 0.5 MPK Injection [10]: 72.53 IU/L; Footpad Thickness (24 h−0 h, mm) (BALB/C mice [11]): 1.24 mm
5 | CCCCCCCCC(CCCCCCCC)OC(=O)CCCCCCCN(CCCCCCCCOC(=O)C(CCCCCC)CCCCCCCC)CCOC(=O)NCCN1CCCC1 (centres unmarked) [Lipid 148, 8-((8-(heptadecan-9-yloxy)-8-oxooctyl)(2-(((2-(pyrrolidin-1-yl)ethyl)carbamoyl)oxy)ethyl)amino)octyl 2-hexyldecanoate] | 0.03 | 93.46 | 0.07065 | 122.1 | −2.35 mV | 3.769 mV | 95% | 93.50% | 2.35E+06 | 6.39E+02 | 2.40E+05 | 8.69E+05 | 47% | 128% | 21% | 102% | 5.07E+08 | 1.69E+09 | 6709.61 pg/mL | 69.59 pg/mL | ALT in Sera (IU/L) 2 hours After 0.5 MPK Injection [9]: 53.60 IU/L; ALT in Sera (IU/L) 24 hours After 0.5 MPK Injection [9]: 59.93 IU/L; AST in Sera (IU/L) 2 hours After 0.5 MPK Injection [10]: 136.17 IU/L; AST in Sera (IU/L) 24 hours After 0.5 MPK Injection [10]: 108.13 IU/L; Footpad Thickness (24 h−0 h, mm) (BALB/C mice [11]): 0.23 mm
